Tests used:
Assay in all cases: normalised response (% of control), CellTiter-Glo; higher = more viable cells (100 = DMSO, 0 = benzethonium chloride kill control)
Conditions in all cases: incubation time: 72 h
[1] = tested on: MDA-MB-436
Method in brief: (§1)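 Breast cancer cell lines were exposed for 72 h in 384-well plates to compound at 5 concentrations, 10-fold apart, covering a 10,000-fold range fixed for each compound. Plates were read for CellTox Green fluorescence and CellTiter-Glo luminescence and normalised to 0.1 % DMSO (100) and a positive kill control (0). Each value is the normalised signal at one concentration of the series.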

[2] = tested on: CAL-85-1
Method in brief: as §1

[3] = tested on: MDA-MB-231
Method in brief: as §1

[4] = tested on: BT-474
Method in brief: as §1

[5] = tested on: HCC1599
Method in brief: as §1

[6] = tested on: HCC1143
Method in brief: as §1

[7] = tested on: BT-549
Method in brief: as §1

[8] = tested on: DU-4475
Method in brief: as §1

[9] = tested on: HDQ-P1
Method in brief: as §1

[10] = tested on: MFM-223
Method in brief: as §1

[11] = tested on: HCC1937
Method in brief: as §1

[12] = tested on: CAL-51
Method in brief: as §1

[13] = tested on: MDA-MB-453
Method in brief: as §1

[14] = tested on: MCF-10A
Method in brief: as §1

[15] = tested on: Hs578T
Method in brief: as §1

[16] = tested on: CAL-120
Method in brief: as §1

[17] = tested on: MDA-MB-468
Method in brief: as §1

[18] = tested on: SK-BR-3
Method in brief: as §1

[19] = tested on: CAL-148
Method in brief: as §1

SMILES | normalised response [1] [%] | normalised response [2] [%] | normalised response [3] [%] | normalised response [4] [%] | normalised response [5] [%] | normalised response [6] [%] | normalised response [7] [%] | normalised response [8] [%] | normalised response [9] [%] | normalised response [10] [%] | normalised response [11] [%] | normalised response [12] [%] | normalised response [13] [%] | normalised response [14] [%] | normalised response [15] [%] | normalised response [16] [%] | normalised response [17] [%] | normalised response [18] [%] | normalised response [19] [%]
Cn1cnc2c(F)c(Nc3ccc(Br)cc3F)c(C(=O)NOCCO)cc21 [MEK-162] (1 nM) | 101 | 95.7 | 99 | 106 | 99.7 | 99.6 | 99.8 | 99.7 | 93.2 | 103 | 96.3 | 108 | 103 | 96.1 | 95.4 | 100 | 103 | 116 | 102
CCOc1cc2ncc(C#N)c(Nc3ccc(OCc4ccccn4)c(Cl)c3)c2cc1NC(=O)/C=C/CN(C)C [Neratinib] (1 nM) | 97.1 | 94.5 | 107 | 100 | 99.2 | 101 | 96.3 | 105 | 93.8 | 106 | 96.7 | 80 | 99.5 | 109 | 104 | 96.9 | 101 | 73.3 | 107
COC1=CC(c2cc3ccccc3[nH]2)=N/C1=C\c1[nH]c(C)cc1C [Obatoclax] (10 nM) | 91 | 93.6 | 94.6 | 95 | 92.2 | 95.5 | 96.9 | 100 | 92.6 | 91.4 | 94.6 | 121 | 104 | 94.7 | 99.4 | 98.8 | 98.9 | 90.2 | 89.9
COC(=O)C[C@](O)(CCCC(C)(C)O)C(=O)O[C@@H]1C(OC)=C[C@]23CCCN2CCc2cc4c(cc2[C@H]13)OCO4 [Omacetaxine] (10 nM) | 88.7 | 98.6 | 105 | 103 | 92.5 | 109 | 104 | 75.5 | 96.1 | 106 | 100 | 94 | 109 | 123 | 108 | 103 | 101 | 110 | 115
CC(C)(C)c1cc(NC(=O)Nc2ccc(-c3cn4c(n3)sc3cc(OCCN5CCOCC5)ccc34)cc2)no1 [Quizartinib] (1 nM) | 104 | 106 | 106 | 118 | 116 | 110 | 98.8 | 104 | 98.5 | 111 | 101 | 112 | 104 | 110 | 97.2 | 111 | 104 | 56.6 | 109
O=C(c1ccc(OCCN2CCCCC2)cc1)c1c(-c2ccc(O)cc2)sc2cc(O)ccc12 [Raloxifene] (10 nM) | 101 | 99 | 99.8 | 105 | 100 | 115 | 94.8 | 107 | 107 | 105 | 106 | 68.2 | 94.7 | 106 | 105 | 98.7 | 112 | 107 | 106
Cn1c(=O)c(F)c(Nc2ccc(I)cc2F)c2c(=O)n(C[C@@H](O)CO)cnc21 [TAK-733] (1 nM) | 98.8 | 98.3 | 108 | 45.1 | 102 | 103 | 99.2 | 92.4 | 83.7 | 113 | 98.1 | 86.9 | 98.7 | 83 | 98.6 | 95 | 100 | 104 | 105

Reference: the supplement of paper PMC4862054
